Assays:
[1] = Protein binding and blood cell affinity of M506; assay type: in vitro ADME
[2] = Metabolite profiling and identification in plasma, urine and feces (part A); assay type: in vivo, human healthy male volunteers; conditions: male, human, in vivo; for half-life: apparent t½ of metabolite in plasma; for tmax: tmax of metabolite in plasma
Method: Participants were hospitalized from day 1 to day 16 of the study, and further assessed on days 19, 22, and 25 (trial end). […] Pre-dose feces and urine samples were collected on day 1 and day 2, respectively. Urine was collected at 4- to 12-h intervals on day 1 and every 24 h thereafter up to day 16. Feces were collected every 24 h up to day 16. Provision was made to collect further samples up to day 39 if >1% of the administered dose was detectable in the total (urine and feces) excreta per day on two consecutive measurements.
Metabolite profiling and structure elucidation in plasma, urine, and feces were performed at the Institute of Drug Metabolism and Pharmacokinetics, Merck KGaA, Grafing, Germany, using a radiometric UPLC method coupled to a high-resolution MS. For urine and feces, metabolites were identified in a single pooled sample per matrix and subject (urine pool of 4–120 h and feces pool of 0–192 h), that covered at least 90% of the total radioactivity of the respective matrix excreted. Intervals with low radioactivity were not used for the generation of the pooled samples to avoid dilution, and to increase the signal-to-noise ratio of the respective chromatograms.
The metabolite structure elucidation was performed using the linear trap quadrupole Orbitrap XL hybrid Fourier transform (FT) MS (Thermo Scientific, Dreieich, Germany) coupled to a Waters Acquity UPLC system. Full-scan FT spectra were acquired for measurement of the masses of molecular ions of parent and metabolites. MS^2 fragmentation spectra were acquired after high-energy collisional dissociation of the appropriate molecular ions. Allocation and confirmation of the proposed metabolites to the radioactive peaks were performed using an API4000 QTrap (AB Sciex, Darmstadt, Germany) MS with simultaneous splitting using a fraction collection system (CTC HTS PAL Fraction Collector, Axel Semrau, Sprockhövel, Germany), and offline radioactive measurement using a Topcount NXT® microplate scintillation counter (PerkinElmer, Rodgau, Germany).
The maximum plasma concentration (Cmax) and time to reach maximum concentration (tmax) were derived directly from the plasma concentration–time data. Lag time (tlag) was the time prior to the first measurable (non-zero) concentration. The area under the plasma concentration–time curve from 0 to t (last measurable concentration; AUC0–t) was calculated using a mixed log–linear trapezoidal method. Area under the plasma concentration–time curve until the last sampling time (AUCall), which corresponds to AUC0–240 h within the observation period, was used for metabolite calculations. Amounts excreted in urine, feces, and total (urine + feces) were calculated as the sum of amounts (concentration multiplied by volume) for each collection from time 0 to time t. The terminal rate constant (λz) was used to estimate the terminal half-life (t½) (ln 2/λz), and the area under the concentration–time curve from time 0 to infinity (AUC0–∞). Total body clearance (CL) and apparent body clearance (CL/f) were determined by dose/AUC0–∞, and total volume of distribution (Vz) and apparent volume of distribution (Vz/f) were calculated by dose/(AUC0–∞*λz) after IV and oral administration, respectively. Volume of distribution of the central compartment (Vc) was derived by dividing the dose by the initial drug plasma concentration after IV administration. Absolute bioavailability was calculated as F = (AUCoral/doseoral)/(AUCIV/doseIV) × 100. The ratios (%) AUCtepotinib or metabolite/AUCtotal radioactivity were calculated as a percentage of the molar AUCs.

CN1CCC(COc2cnc(-c3cccc(Cn4nc(-c5cccc(C#N)c5)ccc4=O)c3)nc2)CC1=O (stereo not shown) [M506]
affinity for blood cells [1]: low affinity for blood cells | protein binding [1]: highly protein-bound | half-life ([2]; median): 92 h | half-life ([2]; range): 66 to 145 h | % of AUCall of total 14C-radioactivity in plasma ([2]; po): 41% | tmax ([2]; po, median): 24 h | tmax ([2]; po, range): 24 to 60 h

— PMC7497692 (Investigational New Drugs, 2020)
